This is an account of results in patent publication US20080021069A1, “Receptor Function Regulating Agent” (TAKEDA PHARMACEUTICAL COMPANY LIMITED, priority 2004, published 2008).

Structures are written as SMILES.

With `Cl.FC(F)(F)COc1ccc(-n2c(SCc3ccc(Cl)cc3)nc3ccc(Cl)cc32)cc1`, the melting point (as a rule, the temperature of the solid-liquid transition) fell in the range of 106 to 107 °C.
To `Cl.Clc1ccc(CSc2nc3cc(Cl)ccc3n2-c2ccc(OCC3CC3)cc2)cc1` belongs 118 to 126 °C.
Turning to `COc1ccc(-n2c(SCc3ccc(Cl)cc3)nc3ccc(Cl)cc32)cn1.Cl`, the melting point fell in the range of 80 to 86 °C.
Next, `COc1ccc(-n2c(SCc3ccc(C(F)(F)F)nc3)nc3ccc(Cl)cc32)cn1.Cl`: 69 to 76 °C; `CCOc1ccc(-n2c(SCc3ccc(C(C)C)cc3)nc3ccc(Cl)cc32)cc1.Cl`: 96 to 100 °C.
Next, `Cl.FC(F)(F)Oc1ccc(-n2c(SCc3ccc(Cl)cc3)nc3cc(Cl)ccc32)cc1`: 96 to 100 °C; `COc1ccc(-n2c(SCc3ccc(Cl)cc3)nc3ccc(Cl)cc32)cc1` [Example 1, 6-Chloro-2-[(4-chlorobenzyl)thio]-1-(4-methoxyphenyl)-1H-benzimidazole]: 116 to 117 °C.
Next, `COc1ccc(-n2c(SCc3ccccc3Cl)nc3ccc(Cl)cc32)cc1` [Example 3, 6-Chloro-2-[(2-chlorobenzyl)thio]-1-(4-methoxyphenyl)-1H-benzimidazole]: 94 to 95 °C; `COc1ccc(-n2c(SCc3cccc(OC)c3)nc3ccc(Cl)cc32)cc1` [Example 5, 6-Chloro-2-[(3-methoxybenzyl)thio]-1-(4-methoxyphenyl)-1H-benzimidazole]: 93 to 94 °C; `COc1ccc(CSc2nc3ccc(Cl)cc3n2-c2ccc(OC)cc2)cc1` [Example 6, 6-Chloro-2-[(4-methoxybenzyl)thio]-1-(4-methoxyphenyl)-1H-benzimidazole]: 119 to 120 °C.
As to `Oc1ccc(-n2c(SCc3ccc(Cl)cc3)nc3ccc(Cl)cc32)cc1` [Example 9, 4-{6-Chloro-2-[(4-chlorobenzyl)thio]-1H-benzimidazol-1-yl}phenol], the melting point was 210 to 212 °C.
To `Clc1ccc(CSc2nc3ccc(Cl)cc3n2-c2ccc(OCC3CC3)cc2)cc1` [Example 11, 6-Chloro-2-[(4-chlorobenzyl)thio]-1-[4-(cyclopropylmethoxy)phenyl]-1H-benzimidazole] belongs 137 to 138 °C; to `CC(=O)OCCOc1ccc(-n2c(SCc3ccc(Cl)cc3)nc3ccc(Cl)cc32)cc1` [Example 15, 2-(4-{6-Chloro-2-[(4-chlorobenzyl)thio]-1H-benzimidazol-1-yl}phenoxy)ethyl acetate], 126 to 127 °C; to `OCCOc1ccc(-n2c(SCc3ccc(Cl)cc3)nc3ccc(Cl)cc32)cc1` [Example 16, 2-(4-{6-Chloro-2-[(4-chlorobenzyl)thio]-1H-benzimidazol-1-yl}phenoxy)ethanol], 113 to 114 °C.
To `COc1cccc(-n2c(SCc3ccc(Cl)cc3)nc3ccc(Cl)cc32)c1` [Example 17, 6-Chloro-2-[(4-chlorobenzyl)thio]-1-(3-methoxyphenyl)-1H-benzimidazole] belongs 100 to 101 °C; to `COc1ccccc1-n1c(SCc2ccc(Cl)cc2)nc2ccc(Cl)cc21` [Example 18, 6-Chloro-2-[(4-chlorobenzyl)thio]-1-(2-methoxyphenyl)-1H-benzimidazole], 124 to 125 °C.
To `CCOC(=O)c1ccc(-n2c(SCc3ccc(Cl)cc3)nc3ccc(Cl)cc32)cc1` [Example 19, Ethyl 4-{6-chloro-2-[(4-chlorobenzyl)thio]-1H-benzimidazol-1-yl}benzoate] belongs 100 to 101 °C; to `COc1ccc(-n2c(SCc3ccc(Cl)cc3)nc3ccc(OC)cc32)cc1` [Example 20, 2-[(4-Chlorobenzyl)thio]-6-methoxy-1-(4-methoxyphenyl)-1H-benzimidazole], 80 to 81 °C; to `COc1ccc(-n2c(SCc3ccccc3)nc3ccc(Cl)cc32)cc1` [Example 21, 2-(Benzylthio)-6-chloro-1-(4-methoxyphenyl)-1H-benzimidazole], 89 to 90 °C.
Compound `CCCCOc1ccc(-n2c(SCc3ccc(Cl)cc3)nc3ccc(Cl)cc32)cc1` [Example 22, 1-(4-Butoxyphenyl)-6-chloro-2-[(4-chlorobenzyl)thio]-1H-benzimidazole] registered a melting point of 96 to 97 °C.
Next, `CC(C)Oc1ccc(-n2c(SCc3ccc(Cl)cc3)nc3ccc(Cl)cc32)cc1` [Example 23, 6-Chloro-2-[(4-chlorobenzyl)thio]-1-(4-isopropoxyphenyl)-1H-benzimidazole]: 102 to 103 °C.
To `COCCOc1ccc(-n2c(SCc3ccc(Cl)cc3)nc3ccc(Cl)cc32)cc1` [Example 24, 6-Chloro-2-[(4-chlorobenzyl)thio]-1-[4-(2-methoxyethoxy)phenyl]-1H-benzimidazole] belongs 88 to 90 °C.
Consider `CS(=O)(=O)Oc1ccc(-n2c(SCc3ccc(Cl)cc3)nc3ccc(Cl)cc32)cc1` [Example 25, 4-{6-Chloro-2-[(4-chlorobenzyl)thio]-1H-benzimidazol-1-yl}phenyl methanesulfonate], for which the melting point fell in the range of 128 to 129 °C.
Next, `Clc1ccc(CSc2nc3ccc(Cl)cc3n2-c2ccc(Cl)cc2)cc1` [Example 26, 6-Chloro-2-[(4-chlorobenzyl)thio]-1-(4-chlorophenyl)-1H-benzimidazole]: 156 to 157 °C.
Compound `CN(C)C(=O)c1ccc(-n2c(SCc3ccc(Cl)cc3)nc3ccc(Cl)cc32)cc1` [Example 27, 4-{6-Chloro-2-[(4-chlorobenzyl)thio]-1H-benzimidazol-1-yl}-N,N-dimethylbenzamide] had a melting point of 139 to 140 °C.
To `CCOc1ccc(-n2c(SCc3ccc(Br)cc3)nc3ccc(Cl)cc32)cc1` [Example 30, 2-[(4-Bromobenzyl)thio]-6-chloro-1-(4-ethoxyphenyl)-1H-benzimidazole] belongs 136 to 137 °C.
To `CCOCOc1ccc(-n2c(SCc3ccc(Cl)cc3)nc3ccc(Cl)cc32)cc1` [Example 31, 6-Chloro-2-[(4-chlorobenzyl)thio]-1-[4-(ethoxymethoxy)phenyl]-1H-benzimidazole] belongs 130 to 131 °C; to `CCOCOc1ccc(-n2c(SCc3ccc(Br)cc3)nc3ccc(Cl)cc32)cc1` [Example 32, 2-[(4-Bromobenzyl)thio]-6-chloro-1-[4-(ethoxymethoxy)phenyl]-1H-benzimidazole], 145 to 146 °C; to `CCOc1ccc(-n2c(SCc3ccc(-c4ccccc4)cc3)nc3ccc(Cl)cc32)cc1` [Example 34, 2-[(Biphenyl-4-ylmethyl)thio]-6-chloro-1-(4-ethoxyphenyl)-1H-benzimidazole], 116 to 117 °C.
The compound `CCOc1ccc(-n2c(SCc3ccc(C#N)cc3)nc3ccc(Cl)cc32)cc1` [Example 35, 4-({[6-Chloro-1-(4-ethoxyphenyl)-1H-benzimidazol-2-yl]thio}methyl)benzonitrile] registered a melting point of 154 to 155 °C.
As for `CCOc1ccc(-n2c(SCc3ccc(C(=O)OC)cc3)nc3ccc(Cl)cc32)cc1` [Example 37, Methyl 4-({[6-chloro-1-(4-ethoxyphenyl)-1H-benzimidazol-2-yl]thio}methyl)benzoate], the melting point lay within 107 to 109 °C.
The compound `CON(C)C(=O)c1ccc(-n2c(SCc3ccc(Cl)cc3)nc3ccc(Cl)cc32)cc1` [Example 39, 4-{6-Chloro-2-[(4-chlorobenzyl)thio]-1H-benzimidazol-1-yl}-N-methoxy-N-methylbenzamide] registered a melting point of 125 to 126 °C.
With `CCC(=O)c1ccc(-n2c(SCc3ccc(Cl)cc3)nc3ccc(Cl)cc32)cc1` [Example 40, 1-(4-{6-Chloro-2-[(4-chlorobenzyl)thio]-1H-benzimidazol-1-yl}phenyl)propan-1-one], the melting point lay within 176 to 177 °C.
Regarding `CC(C)C(=O)c1ccc(-n2c(SCc3ccc(Cl)cc3)nc3ccc(Cl)cc32)cc1` [Example 41, 1-(4-{6-Chloro-2-[(4-chlorobenzyl)thio]-1H-benzimidazol-1-yl}phenyl)-2-methylpropan-1-one], the melting point is 162 to 163 °C.
`O=C(O)c1ccc(-n2c(SCc3ccc(Cl)cc3)nc3ccc(Cl)cc32)cc1` [Example 42, 4-{6-Chloro-2-[(4-chlorobenzyl)thio]-1H-benzimidazol-1-yl}benzoic acid] showed a melting point of 265 to 266 °C.
To `O=C(NCCO)c1ccc(-n2c(SCc3ccc(Cl)cc3)nc3ccc(Cl)cc32)cc1` [Example 43, 4-{6-Chloro-2-[(4-chlorobenzyl)thio]-1H-benzimidazol-1-yl}-N-(2-hydroxyethyl)benzamide] belongs 185 to 186 °C; to `CCOc1ccc(-n2c(SC(C)c3ccc(Br)cc3)nc3ccc(Cl)cc32)cc1` (stereo not drawn) [Example 48, 2-{[1-(4-Bromophenyl)ethyl]thio}-6-chloro-1-(4-ethoxyphenyl)-1H-benzimidazole], 95 to 98 °C.
On to `Clc1ccc2nc(SCc3ccccc3)n(-c3ccccc3)c2c1` [Example 49, 2-(Benzylthio)-6-chloro-1-phenyl-1H-benzimidazole], for which the melting point was 82 to 83 °C.
Next, `COCOc1ccc(-n2c(SCc3ccccn3)nc3ccc(Cl)cc32)cc1` [Example 55, 6-Chloro-1-[4-(methoxymethoxy)phenyl]-2-[(pyridin-2-ylmethyl)thio]-1H-benzimidazole]: 95 to 96 °C; `COCOc1ccc(-n2c(SCc3cccnc3)nc3ccc(Cl)cc32)cc1` [Example 56, 6-Chloro-1-[4-(methoxymethoxy)phenyl]-2-[(pyridin-3-ylmethyl)thio]-1H-benzimidazole]: 101 to 102 °C; `CCOC(=O)N1CCC(n2c(SCc3ccc(Cl)cc3)nc3ccc(Cl)cc32)CC1` [Example 58, Ethyl 4-{6-chloro-2-[(4-chlorobenzyl)thio]-1H-benzimidazol-1-yl}piperidine-1-carboxylate]: 118 to 119 °C.
Next, `CCOC(=O)N1CCC(n2c(SCc3ccc(Br)cc3)nc3ccc(Cl)cc32)CC1` [Example 59, Ethyl 4-{2-[(4-bromobenzyl)thio]-6-chloro-1H-benzimidazol-1-yl}piperidine-1-carboxylate]: 123 to 124 °C.
